For test [1], the target named is T1, recombinant E. coli enolase (Escherichia coli, UniProt P0A6P9).
T1 construct: made in house
Kind of test: E. coli enolase enzymatic inhibition assay (PEP absorbance at 240 nm). The test is classed as biochemical. The settings on record: for IC50: enolase 40 nM, 0.5 mM 2-PGA, 25 °C; for Ki: from IC50 by Cheng-Prusoff equation and KM. How it is done: To assess the relative affinity of SF2312 and KSF for enolase, the inhibitory constant, Ki, was determined from IC50 values using the Cheng-Prusoff equation and KM values.
The activity and inhibition of E. coli enolase described in this study was carried out using the procedure as we previously reported. Briefly, enolase activity was measured at 25 °C in the forward (formation of PEP from 2‐PGA) direction by direct monitoring of the increase in PEP absorbance at 240 nm, using a DU 640 spectrophotometer (Beckman). The standard assay contained 50 mM Tris pH 8.0, 0.1 M KCl, 0.5 mM 2-PGA and 1 mM MgSO4. The reactions were carried out at a final volume of 500 μL. Initial velocities came from the slopes of linear progress curves of 1 minute duration. One unit of enolase activity was defined as the amount of protein which catalyzes the formation of 1 μmole PEP from 2-PGA in 1 minute. The concentration of PEP was determined using a molar extinction coefficient (Ɛ240nm = 1400 M^−1 cm^1).
Inhibition of enolase activity by SF2312 and its analog, KSF was performed at a constant enolase concentration of 40 nM. The compounds, supplied in water, were preincubated with protein at concentrations ranging from 2 nM to 20 µM for 5 minutes in the assay buffer consisting of 50 mM Tris pH 8.0, 0.1 M KCl and 1 mM MgSO4. The reaction was initiated by the addition of 0.5 mM 2-PGA. The decrease in enolase activity upon inhibition was monitored at 5 second intervals for a period of 5 minutes at λ =240 nm. The average half maximal inhibitory concentrations (IC50) was calculated from initial rates of absorbance increase plotted as a function of ligand concentration using GraphPad Prism software (Fig. 2). Ki values were calculated using the Cheng-Prusoff equation from the experimental IC50 and Km values.

For test [2], the target named is T1, recombinant E. coli enolase. Kind of test: Differential scanning calorimetry thermal unfolding of enolase with inhibitors. The test is classed as binding. To be noted: for protein thermal melting point (Tm): enolase 6 μM with ligand 60 μM, apo enolase 52.7 °C; for shift of thermal melting point: versus enolase without inhibitor (∼53 °C). How it is done:
We used differential scanning calorimetry to analyze the direct in vitro binding of SF2312 and KSF to recombinant E. coli enolase (see Fig. 3). […] Upon overnight treatment with SF2312, the protein thermal melting point was ~82 °C, a shift of ∼29 °C.
The DCS experiment was performed as described previously. Prior to analysis, purified E. coli enolase was buffer exchanged into 20 mM HEPES (pH 7.0), 50 mM NaCl and 2 mM MgCl2. The concentrations of protein and ligand were adjusted to 6 μM and 60 μM, respectively. Protein samples with and without ligand were heated from 0–120 °C at 1 °C/min using a NanoDSC instrument (TA instruments). The samples were degassed for 15 minutes prior to injection into the calorimeter cell. The reference cell was filled with buffer for all runs. A pressure of 3 atm was applied to both cells during the run. The excess heat capacity scans for the protein transitions were obtained by subtracting a control scan of buffer versus buffer. The data were corrected for the difference in heat capacity between the initial and the final state by using a sigmoid baseline in the NanoAnalyze software (TA instruments) and a two-state transition model was used to determine the denaturation temperature (Tm) (Fig. 3).
On the technique in general: In DSC, transitions show as peaks or steps in heat flow.

In test [3] the test system is E. coli ATCC 25922. The experiment in a line: MIC, microdilution broth assay. The test is classed as cell-based. To be noted: Escherichia coli. The text has this:
(§1) To evaluate the activity of SF2312 against Gram-positive and Gram-negative bacteria, we have determined the minimal inhibitory concentration (MIC) for Escherichia coli ATCC 25922, Staphylococcus aureus ATCC […], Pseudomonas aeruginosa ATCC 27853, and Acinetobacter baumannii ATTC 19606 using the microdilution broth assay based on Clinical and Laboratory Standards Institute. Concentrations of SF2312 and the standard antibiotics tested were serially diluted to the following ranges: SF2312, 300 to 0.2 μg/mL; trimethoprim 10 to 0.01 μg/mL and fosfomycin, 20 to 0.040 μg/mL. For synergy studies, using the checkerboard method the following concentration range was used: fosfomycin 10 to 0.156 μg/mL and SF2312 100 to 0.05 μg/mL. The cation-adjusted Mueller-Hinton broth was supplemented with 25 μg/mL glucose-6-phosphate. Growth was monitored at Abs 600 nm. The MIC of each antimicrobial agent alone and in combination was defined as the lowest concentration that inhibited visible growth of the organism and were determined in duplicate.
A general note: Broth dilution looks for growth in wells or tubes with falling amounts of substance.

For a further test, the system named is S. aureus ATCC 43300. Kind of test: MIC, microdilution broth assay. The test is classed as cell-based. The settings on record: Staphylococcus aureus.
Excerpt: as §1

For the next test, the system named is A. baumannii ATCC 19606. The experiment in a line: MIC, microdilution broth assay. Format: cell-based, Acinetobacter baumannii.
Excerpt: as §1

Another test has as its system P. aeruginosa ATCC 27853. Kind of test: MIC, microdilution broth assay. Format: cell-based, Pseudomonas aeruginosa.
Excerpt: as §1

The subject of test [4] is E. coli ATCC 25922. Kind of test: Checkerboard synergy of SF2312 with fosfomycin. The test is classed as cell-based, Escherichia coli. To be noted: for MIC: Escherichia coli; for maximum drop of E. coli MIC when co-administered: SF2312 co-administered with fosfomycin. How it is done:
It should be noted that the target of fosfomycin, UDP-N-acetylglucosamine enolpyruvyl transferase (MurA), acts immediately downstream of enolase utilizing PEP in the first step of peptidoglycan synthesis. Since targeting two sequential enzymes in the same metabolic pathway can be a powerful synergistic mechanism for two antibiotics, an evidence for synergy between SF2312 and fosfomycin was assessed by the checkerboard method. […] The observed synergy supports the notion that the antibacterial activity of SF2312 is due to the inhibition of enolase since, fosfomycin is known to have minimal to no effect on the enzymes utilizing PEP, such as enolase.
as §1
The definition of synergy used in these studies was the fractional inhibitory concentration (FIC) index, represented by the formula FIC= (MIC of fosfomycin in combination/MIC of fosfomycin alone) + (MIC of SF2312 in combination/MIC of the SF2312 alone). A calculated FIC index of less than 0.5 represented a synergistic effect (i.e., total effect greater than the sum of the individual antibiotic effects), a value between 0.5–2 represented an additive effect (i.e. no additional contribution from including the second antibiotic, compared with when the first antibiotic. A value greater than 2 represented an antagonistic effect (i.e., total effect less than the sum of the individual effects)[26].

A further test deals with ENO1-rescued cells. Also noted: method as in earlier work. The settings on record: isogenic ENO1-rescued glioma cells; ref 5 (Leonard et al.); cited from earlier work.
Where [5] appears, read: CAHM media with 25 μg/mL Glucose-6-Phosphate.

Usually IC50 stands for the concentration needed to halve the response being measured. By Ki is commonly meant the equilibrium dissociation constant of an inhibitor or competing ligand from its target. What is called MIC is the lowest concentration found to suppress growth. By GI50 is commonly meant the concentration at which growth is held to half of that of the control.

Where “and” joins values, the source holds several entries; their conditions need not be identical. Equal values may be shown once. Read-outs that look alike come from different tables or passages of the source.

T1 sequence (P0A6P9 whole entry): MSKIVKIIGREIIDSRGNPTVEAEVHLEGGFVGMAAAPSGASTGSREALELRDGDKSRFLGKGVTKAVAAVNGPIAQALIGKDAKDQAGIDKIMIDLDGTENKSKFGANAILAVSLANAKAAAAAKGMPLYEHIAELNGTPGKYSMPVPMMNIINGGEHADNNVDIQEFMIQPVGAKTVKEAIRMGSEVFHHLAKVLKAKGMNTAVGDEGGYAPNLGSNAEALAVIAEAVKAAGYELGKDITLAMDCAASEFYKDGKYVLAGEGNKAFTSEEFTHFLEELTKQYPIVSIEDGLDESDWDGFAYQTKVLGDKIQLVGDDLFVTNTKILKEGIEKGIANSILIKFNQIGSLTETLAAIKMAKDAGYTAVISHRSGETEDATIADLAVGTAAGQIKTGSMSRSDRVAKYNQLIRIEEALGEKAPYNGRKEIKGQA

On to `O=C1CC(P(=O)(O)O)C(=O)N1O` (stereo not drawn) [KSF, (1-hydroxy-2,5-dioxopyrrolidin-3-yl)phosphonic acid], for which, in test [1], the half-maximal inhibitory concentration (IC50) was 7.67 µM and 7.7 µM; the inhibition constant Ki came to 1.4 µM. Also, the “loss in activity between SF2312 and KSF” value in test [1] (ratio of IC50 values) is “over 400 fold”. In test [2], the “protein thermal melting point (Tm)” value stood at 70.85 °C and the “shift of thermal melting point” value was about 18 °C.
On to `O=C1C(P(=O)(O)O)CC(O)N1O` (stereo not drawn) [SF2312, 3-Dihydroxyphosphoryl-1-,5-dihydroxy-2-pyrrolidone], for which, in test [1], the IC50 stood at 0.0184 ± 0.00284 µM. Further, the Ki in test [1] amounted to 0.0034 µM. In addition, the “protein thermal melting point (Tm)” value in test [2] is ~ 82 °C and 81.75 °C. Moreover, the “shift of thermal melting point” value in test [2] is about 29 °C. The MIC in the test on E. coli ATCC 25922 [3] (ATCC25922, CAHM media with 25 μg/mL Glucose-6-Phosphate) was 100 mg/L; in the test on E. coli ATCC 25922 [3] (ATCC25922, CAHM media without Glucose-6-Phosphate) it was 400 mg/L; in the test on S. aureus ATCC 43300 (ATCC43300, CAHM media with 25 μg/mL Glucose-6-Phosphate), 20 mg/L; with S. aureus ATCC 43300 (ATCC43300, CAHM media without Glucose-6-Phosphate), 100 mg/L; in the test on A. baumannii ATCC 19606 (Acinetobacter baumannii, ATCC19606), over 400 mg/L; with A. baumannii ATCC 19606 (setting [5]) it was over 400 mg/L. In addition, the MIC was found to be 50 mg/L in the test on P. aeruginosa ATCC 27853 (setting [5]); 50 mg/L in the test on P. aeruginosa ATCC 27853 (Pseudomonas aeruginosa, ATCC27853); 100 mg/L in the test on E. coli ATCC 25922 [4] (ATCC25922, read-out: MIC alone). Further, the “maximum drop of E. coli MIC when co-administered” value with E. coli ATCC 25922 [4] was found to be 16 fold. For the same compound, the 50% growth inhibitory concentration (GI50) with ENO1-rescued cells is over 200 µM.
Turning to `C[C@@H]1O[C@@H]1P(=O)(O)O` [fosfomycin], the minimum inhibitory concentration (MIC) is 1.25 mg/L in the test on E. coli ATCC 25922 [3] (ATCC25922, CAHM media with 25 μg/mL Glucose-6-Phosphate, read-out: MIC); over 10 mg/L with E. coli ATCC 25922 [3] (ATCC25922, CAHM media without Glucose-6-Phosphate, read-out: MIC); 2.5 mg/L in the test with S. aureus ATCC 43300 (ATCC43300, CAHM media with 25 μg/mL Glucose-6-Phosphate, read-out: MIC); 20 mg/L in the test on S. aureus ATCC 43300 (ATCC43300, CAHM media without Glucose-6-Phosphate, read-out: MIC); over 20 mg/L in the test with A. baumannii ATCC 19606 (Acinetobacter baumannii, ATCC19606, CAHM media without Glucose-6-Phosphate, read-out: MIC); over 20 mg/L in the test on A. baumannii ATCC 19606 (setting [5]). Moreover, the minimum inhibitory concentration (MIC) came out at 5 mg/L in the test on P. aeruginosa ATCC 27853 (setting [5]); 5 mg/L in the test on P. aeruginosa ATCC 27853 (Pseudomonas aeruginosa, ATCC27853, CAHM media without Glucose-6-Phosphate, read-out: MIC); 1.25 mg/L in the test with E. coli ATCC 25922 [4] (ATCC25922, checkerboard, partner agent 0 μg/mL, 25 μg/mL glucose-6-phosphate, read-out: MIC alone). Besides, the “maximum drop of E. coli MIC when co-administered” value in the test with E. coli ATCC 25922 [4] is recorded as 4 fold.

The values are drawn from publication PMC6863902, “Functional and structural basis of E. coli enolase inhibition by SF2312: a mimic of the carbanion intermediate” (Scientific Reports, 2019).
